Measured values as given in patent US10945435B2, “Imidazopyrimidine derivatives with sulfur containing phenyl and pyridyl substituents” (SYNGENTA PARTICIPATIONS AG, priority 2017, dated 2021).

Legend:
Assay type in all cases: in vivo
[1] = tested on: Diabrotica balteata (Corn Root Worm); test: Example B2 Diabrotica balteata mortality and growth inhibition; conditions: 96 h, application rate of 200 ppm, L2 larvae on sprayed maize sprouts, 4 days after infestation, read-out: effect in at least one of the two categories (mortality or growth inhibition)
Procedure: Diabrotica balteata (Corn Root Worm)
Maize sprouts placed onto an agar layer in 24-well microtiter plates were treated with aqueous test solutions prepared from 10,000 ppm DMSO stock solutions by spraying. After drying, the plates were infested with L2 larvae (6 to 10 per well). The samples were assessed for mortality and growth inhibition in comparison to untreated samples 4 days after infestation.

[2] = tested on: Diabrotica balteata (Corn Root Worm); test: Example B4 Diabrotica balteata mortality; conditions: 96 h, application rate of 200 ppm, L2 larvae on sprayed maize sprouts, 4 days after infestation
Procedure: Diabrotica Balteata (Corn Root Worm):
Maize sprouts placed onto an agar layer in 24-well microtiter plates were treated with aqueous test solutions prepared from 10,000 ppm DMSO stock solutions by spraying. After drying, the plates were infested with L2 larvae (6 to 10 per well). The samples were assessed for mortality 4 days after infestation.

[3] = tested on: Euschistus heros (Neotropical Brown Stink Bug); test: Example B5 Euschistus heros mortality and growth inhibition; conditions: 120 h, application rate of 200 ppm, N2 nymphs on sprayed soybean leaves, 5 days after infestation, read-out: effect in at least one of the two categories (mortality or growth inhibition)
Procedure: Euschistus heros (Neotropical Brown Stink Bug)
Soybean leaves on agar in 24-well microtiter plates were sprayed with aqueous test solutions prepared from 10,000 ppm DMSO stock solutions. After drying the leaves were infested with N2 nymphs. The samples were assessed for mortality and growth inhibition in comparison to untreated samples 5 days after infestation.

[4] = tested on: Euschistus heros (Neotropical Brown Stink Bug); test: Example B7 Euschistus heros feeding/contact activity; conditions: 120 h, application rate of 200 ppm, N2 nymphs on sprayed soybean leaves, 5 days after infestation
Procedure: Euschistus heros (Neotropical Brown Stink Bug): Feeding/Contact Activity
Soybean leaves on agar in 24-well microtiter plates were sprayed with aqueous test solutions prepared from 10,000 ppm DMSO stock solutions. After drying the leaves were infested with N2 nymphs. The samples were assessed for mortality 5 days after infestation.

[5] = tested on: Plutella xylostella (Diamond Back Moth); test: Example B11 Plutella xylostella growth inhibition activity; conditions: 120 h, application rate of 200 ppm, L2 larvae on treated artificial diet, 5 days after infestation
Procedure: Plutella xylostella (Diamond Back Moth): Growth Inhibition Activity
24-well microtiter plates with artificial diet were treated with aqueous test solutions prepared from 10,000 ppm DMSO stock solutions by pipetting. After drying, the plates were infested with L2 larvae (10 to 15 per well). The samples were assessed for growth inhibition in comparison to untreated samples 5 days after infestation. Control of Plutella xylostella by a test sample is given when the growth inhibition is higher than the untreated sample.

[6] = tested on: Plutella xylostella (Diamond Back Moth); test: Example B12 Plutella xylostella feeding/contact activity; conditions: 120 h, application rate of 200 ppm, L2 larvae on treated artificial diet, 5 days after infestation
Procedure: Plutella xylostella (Diamond Back Moth): Feeding/Contact Activity
24-well microtiter plates with artificial diet were treated with aqueous test solutions prepared from 10,000 ppm DMSO stock solutions by pipetting. After drying, the plates were infested with L2 larvae (10 to 15 per well). The samples were assessed for mortality 5 days after infestation.

[7] = tested on: Plutella xylostella (Diamond Back Moth); test: Example B13 Plutella xylostella mortality and growth inhibition; conditions: 120 h, application rate of 200 ppm, L2 larvae on treated artificial diet, 5 days after infestation, read-out: effect in at least one of the two categories (mortality or growth inhibition)
Procedure: Plutella xylostella (Diamond Back Moth)
24-well microtiter plates with artificial diet were treated with aqueous test solutions prepared from 10,000 ppm DMSO stock solutions by pipetting. After drying, the plates were infested with L2 larvae (10 to 15 per well). The samples were assessed for mortality and growth inhibition in comparison to untreated samples 5 days after infestation.

[8] = tested on: Spodoptera littoralis (Egyptian Cotton Leaf Worm); test: Example B14 Spodoptera littoralis anti-feeding activity; conditions: foliar, 72 h, application rate of 200 ppm, L1 larvae on sprayed cotton leaf discs, 3 days after infestation, read-out: control (anti-feeding effect)
Procedure: Spodoptera littoralis (Egyptian Cotton Leaf Worm): Anti-Feeding Activity
Cotton leaf discs were placed onto agar in 24-well microtiter plates and sprayed with aqueous test solutions prepared from 10,000 ppm DMSO stock solutions. After drying the leaf discs were infested with five L1 larvae. The samples were assessed for anti-feeding effect in comparison to untreated samples 3 days after infestation. Control of Spodoptera littoralis by a test sample is given when the anti-feedant effect is higher than the untreated sample.

[9] = tested on: Spodoptera littoralis (Egyptian Cotton Leaf Worm); test: Example B16 Spodoptera littoralis feeding/contact activity; conditions: foliar, 72 h, application rate of 200 ppm, L1 larvae on sprayed cotton leaf discs, 3 days after infestation
Procedure: Spodoptera littoralis (Egyptian Cotton Leaf Worm): Feeding/Contact Activity
Cotton leaf discs were placed onto agar in 24-well microtiter plates and sprayed with aqueous test solutions prepared from 10,000 ppm DMSO stock solutions. After drying the leaf discs were infested with five L1 larvae. The samples were assessed for mortality 3 days after infestation.

[10] = tested on: Bemisia tabaci (Cotton White Fly); test: Example B1 Bemisia tabaci feeding/contact activity; conditions: foliar, 144 h, application rate of 200 ppm, adult white flies on sprayed cotton leaf discs, 6 days after incubation
Procedure: Bemisia tabaci (Cotton White Fly): Feeding/Contact Activity
Cotton leaf discs were placed on agar in 24-well microtiter plates and sprayed with aqueous test solutions prepared from 10,000 ppm DMSO stock solutions. After drying the leaf discs were infested with adult white flies. The samples were checked for mortality 6 days after incubation.

[11] = tested on: Myzus persicae (Green Peach Aphid); test: Example B9 Myzus persicae feeding/contact activity; conditions: foliar, 144 h, application rate of 200 ppm, mixed-age aphids on sprayed sunflower leaf discs, 6 days after infestation
Procedure: Myzus persicae (Green Peach Aphid): Feeding/Contact Activity
Sunflower leaf discs were placed onto agar in a 24-well microtiter plate and sprayed with aqueous test solutions prepared from 10,000 ppm DMSO stock solutions. After drying, the leaf discs were infested with an aphid population of mixed ages. The samples were assessed for mortality 6 days after infestation.

[12] = tested on: Myzus persicae (Green Peach Aphid); test: Example B10 Myzus persicae systemic activity; conditions: 144 h, test rate of 24 ppm, roots of infested pea seedlings in test solution, 6 days
Procedure: Myzus persicae (Green Peach Aphid). Systemic Activity
Roots of pea seedlings infested with an aphid population of mixed ages were placed directly into aqueous test solutions prepared from 10,000 DMSO stock solutions. The samples were assessed for mortality 6 days after placing seedlings into test solutions.

CCS(=O)(=O)c1cc(OC(C)C)cnc1-c1cn2cnc(SC(F)(F)F)cc2n1 [Compound P2, 2-(3-ethylsulfonyl-5-isopropoxy-2-pyridyl)-7-(trifluoromethylsulfanyl)imidazo[1,2-c]pyrimidine]
≥ 80%: percent effect (mortality or growth inhibition) at 200 ppm [1] | mortality at 200 ppm [2] | percent effect (mortality or growth inhibition) at 200 ppm [3] | mortality at 200 ppm [4] | inhibition at 200 ppm [5] | mortality at 200 ppm [6] | percent effect (mortality or growth inhibition) at 200 ppm [7] | pest or weed control at 200 ppm [8] | mortality at 200 ppm [9]

CCS(=O)(=O)c1cc(OC(F)F)cnc1-c1cn2cnc(C(F)(F)F)cc2n1 [Compound P21, 2-[5-(difluoromethoxy)-3-ethylsulfonyl-2-pyridyl]-7-(trifluoromethyl)imidazo[1,2-c]pyrimidine]
≥ 80%: mortality at 200 ppm [10] | percent effect (mortality or growth inhibition) at 200 ppm [1] | mortality at 200 ppm [2] | percent effect (mortality or growth inhibition) at 200 ppm [3] | mortality at 200 ppm [4] | mortality at 200 ppm [11] | inhibition at 200 ppm [5] | mortality at 200 ppm [6] | percent effect (mortality or growth inhibition) at 200 ppm [7] | pest or weed control at 200 ppm [8] | mortality at 200 ppm [9]

CCS(=O)(=O)c1cc(OCC(F)(F)F)cnc1-c1cn2cnc(SC(F)(F)F)cc2n1 [Compound P1, 2-[3-ethylsulfonyl-5-(2,2,2-trifluoroethoxy)-2-pyridyl]-7-(trifluoromethylsulfanyl)imidazo[1,2-c]pyrimidine]
≥ 80%: mortality at 200 ppm [10] | percent effect (mortality or growth inhibition) at 200 ppm [1] | mortality at 200 ppm [2] | percent effect (mortality or growth inhibition) at 200 ppm [3] | mortality at 200 ppm [4] | mortality at 200 ppm [11] | inhibition at 200 ppm [5] | mortality at 200 ppm [6] | percent effect (mortality or growth inhibition) at 200 ppm [7] | pest or weed control at 200 ppm [8] | mortality at 200 ppm [9]

CCS(=O)(=O)c1cc(OCC(F)F)cnc1-c1cn2cnc([S+]([O-])C(F)(F)F)cc2n1 (stereo not drawn) [Compound P3, 2-[5-(2,2-difluoroethoxy)-3-ethylsulfonyl-2-pyridyl]-7-(trifluoromethylsulfinyl)imidazo[1,2-c]pyrimidine]
≥ 80%: percent effect (mortality or growth inhibition) at 200 ppm [1] | mortality at 200 ppm [2] | percent effect (mortality or growth inhibition) at 200 ppm [3] | mortality at 200 ppm [4] | mortality at 200 ppm [11] | inhibition at 200 ppm [5] | percent effect (mortality or growth inhibition) at 200 ppm [7]

CCS(=O)(=O)c1cc(OC(C)C)cnc1-c1cn2cnc(C(F)(F)F)cc2n1 [Compound P7, 2-(3-ethylsulfonyl-5-isopropoxy-2-pyridyl)-7-(trifluoromethyl)imidazo[1,2-c]pyrimidine]
≥ 80%: percent effect (mortality or growth inhibition) at 200 ppm [1] | mortality at 200 ppm [2] | percent effect (mortality or growth inhibition) at 200 ppm [3] | mortality at 200 ppm [4] | mortality at 200 ppm [11] | inhibition at 200 ppm [5] | mortality at 200 ppm [6] | percent effect (mortality or growth inhibition) at 200 ppm [7] | pest or weed control at 200 ppm [8] | mortality at 200 ppm [9]

CCS(=O)(=O)c1cc(OCS(C)(=O)=O)cnc1-c1cn2cnc(C(F)(F)F)cc2n1 [Compound P23, 2-[3-ethylsulfonyl-5-(methylsulfonylmethoxy)-2-pyridyl]-7-(trifluoromethyl)imidazo[1,2-c]pyrimidine]
≥ 80%: percent effect (mortality or growth inhibition) at 200 ppm [3] | mortality at 200 ppm [4] | mortality at 200 ppm [11] | mortality at 24 ppm [12]

CCS(=O)(=O)c1cc(OCC(F)(F)F)cnc1-c1cn2cnc(C(F)(F)F)cc2n1 [Compound P6, 2-[3-ethylsulfonyl-5-(2,2,2-trifluoroethoxy)-2-pyridyl]-7-(trifluoromethyl)imidazo[1,2-c]pyrimidine]
≥ 80%: mortality at 200 ppm [10] | percent effect (mortality or growth inhibition) at 200 ppm [1] | mortality at 200 ppm [2] | percent effect (mortality or growth inhibition) at 200 ppm [3] | mortality at 200 ppm [4] | mortality at 200 ppm [11] | mortality at 24 ppm [12] | inhibition at 200 ppm [5] | mortality at 200 ppm [6] | percent effect (mortality or growth inhibition) at 200 ppm [7] | pest or weed control at 200 ppm [8] | mortality at 200 ppm [9]

CCS(=O)(=O)c1cc(OCCSC)cnc1-c1cn2cnc(C(F)(F)F)cc2n1 [Compound P15, 2-[3-ethylsulfonyl-5-(2-methylsulfanylethoxy)-2-pyridyl]-7-(trifluoromethyl)imidazo[1,2-c]pyrimidine]
≥ 80%: mortality at 200 ppm [10] | percent effect (mortality or growth inhibition) at 200 ppm [3] | mortality at 200 ppm [4] | mortality at 200 ppm [11] | mortality at 24 ppm [12]
